These results are taken from patent US9670202B2, “Substituted triazolopyridines” (BAYER PHARMA AKTIENGESELLSCHAFT, priority 2013, dated 2017).

This assay concerns the target human kinase Mps-1 (Homo sapiens (Human), UniProt P33981). Description: Mps-1 kinase assay (TR-FRET, 10 μM ATP). The format is biochemical. Particulars: N-terminally GST-tagged human full length recombinant Mps-1, read-out: Mps-1 Inhibition, IC50 (Assay with 10 μM ATP). The protocol:
The human kinase Mps-1 phosphorylates a biotinylated substrate peptide. Detection of the phosphorylated product is achieved by time-resolved fluorescence resonance energy transfer (TR-FRET) from Europium-labelled anti-phospho-Serine/Threonine antibody as donor to streptavidin labelled with cross-linked allophycocyanin (SA-XLent) as acceptor. Compounds are tested for their inhibition of the kinase activity.
N-terminally GST-tagged human full length recombinant Mps-1 kinase (purchased from Invitrogen, Karslruhe, Germany, cat. no PV4071) was used. As substrate for the kinase reaction a biotinylated peptide of the amino-acid sequence […]
The concentration of Mps-1 in the assay was adjusted to the activity of the enzyme lot and was chosen appropriate to have the assay in the linear range, typical enzyme concentrations were in the range of about 1 nM (final conc. in the 5 μl assay volume).
The resulting mixture was incubated 1 h at 22° C. to allow the binding of the phosphorylated peptide to the anti-phospho(Ser/Thr)-Europium-antibody. Subsequently the amount of phosphorylated substrate was evaluated by measurement of the resonance energy transfer from the Europium-labelled anti-phospho(Ser/Thr) antibody to the Streptavidin-XLent. Therefore, the fluorescence emissions at 620 nm and 665 nm after excitation at 350 nm was measured in a Viewlux TR-FRET reader (PerkinElmer LAS, Rodgau-Jügesheinn, Germany). The “blank-corrected normalized ratio” (a Viewlux specific readout, similar to the traditional ratio of the emissions at 665 nm and at 622 nm, in which blank and Eu-donor crosstalk are subtracted from the 665 nm signal before the ratio is calculated) was taken as the measure for the amount of phosphorylated substrate.
A general note: Time-resolved FRET reads energy transfer from a long-lived donor to a nearby acceptor.

Where a name gives a salt, the structure may show the parent alone.

Chain of human kinase Mps-1 (P33981 whole entry): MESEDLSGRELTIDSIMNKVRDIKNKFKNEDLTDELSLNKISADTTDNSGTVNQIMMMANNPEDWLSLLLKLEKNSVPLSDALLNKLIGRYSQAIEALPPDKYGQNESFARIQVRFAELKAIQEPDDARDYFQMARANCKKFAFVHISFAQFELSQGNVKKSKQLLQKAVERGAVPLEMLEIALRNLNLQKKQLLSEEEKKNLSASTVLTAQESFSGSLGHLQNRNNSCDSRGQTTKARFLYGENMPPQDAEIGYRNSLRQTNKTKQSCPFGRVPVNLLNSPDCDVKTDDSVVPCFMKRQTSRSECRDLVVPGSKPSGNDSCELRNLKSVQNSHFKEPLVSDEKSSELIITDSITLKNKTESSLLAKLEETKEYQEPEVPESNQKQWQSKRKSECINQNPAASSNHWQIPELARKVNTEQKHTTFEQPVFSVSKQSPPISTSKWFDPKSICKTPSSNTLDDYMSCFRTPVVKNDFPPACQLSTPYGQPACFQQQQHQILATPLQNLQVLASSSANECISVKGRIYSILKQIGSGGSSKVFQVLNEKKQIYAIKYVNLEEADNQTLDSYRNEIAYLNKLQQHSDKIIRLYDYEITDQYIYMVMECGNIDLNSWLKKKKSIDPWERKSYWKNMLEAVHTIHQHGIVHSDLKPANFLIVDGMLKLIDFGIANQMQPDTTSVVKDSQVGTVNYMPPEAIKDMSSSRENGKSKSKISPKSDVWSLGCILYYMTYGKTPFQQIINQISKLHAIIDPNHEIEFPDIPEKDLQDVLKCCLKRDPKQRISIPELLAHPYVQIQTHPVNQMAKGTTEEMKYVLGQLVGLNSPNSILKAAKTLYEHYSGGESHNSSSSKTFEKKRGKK

The term IC50 denotes the midpoint of a concentration-inhibition curve. For the compound `CCNC(=O)c1ccc(Nc2nc3ccc(N4CCN(C(=O)NCc5ccc(F)cc5)CC4)cn3n2)c(OCC)c1` [Example 01.01, 4-(2-{[2-ethoxy-4-(ethylcarbamoyl)phenyl]amino}[1,2,4]triazolo[1,5-a]-pyridin-6-yl)-N-(4-fluorobenzyl)piperazine-1-carboxamide], the IC50 is 0.0031 µM.
Then `CC(C)(C)NC(=O)c1ccc(Nc2nc3ccc(N4CCN(C(=O)NCc5ccc(F)cc5)CC4)cn3n2)c(OCC(F)(F)F)c1` [Example 01.02, 4-(2-{[4-(tert-butylcarbamoyl)-2-(2,2,2-trifluoroethoxy)phenyl]amino}-[1,2,4]triazolo[1,5-a]pyridin-6-yl)-N-(4-fluorobenzyl)piperazine-1-carboxamide], with 0.0056 µM; and `CCN(CC)C(=O)c1ccc(Nc2nc3ccc(N4CCN(C(=O)NCc5ccc(F)cc5)CC4)cn3n2)c(OC)c1` [Example 01.03, 4-(2-{[4-(diethylcarbamoyl)-2-methoxyphenyl]amino}[1,2,4]triazolo[1,5-a]pyridin-6-yl)-N-(4-fluorobenzyl)piperazine-1-carboxamide], with 0.0079 µM; and `CCOc1cc(C(=O)N2CCOCC2)ccc1Nc1nc2ccc(N3CCN(C(=O)NCc4ccc(F)cc4)CC3)cn2n1` [Example 01.04, 4-(2-{[2-ethoxy-4-(morpholin-4-ylcarbonyl)phenyl]amino}[1,2,4]triazolo-[1,5-a]pyridin-6-yl)-N-(4-fluorobenzyl)piperazine-1-carboxamide], with 0.0026 µM.
Consider `CCCOc1cc(C(=O)N(CC)CC)ccc1Nc1nc2ccc(N3CCN(C(=O)NCc4ccc(F)cc4)CC3)cn2n1` [Example 01.05, 4-(2-{[4-(diethylcarbamoyl)-2-propoxyphenyl]amino}[1,2,4]triazolo[1,5-a]pyridin-6-yl)-N-(4-fluorobenzyl)piperazine-1-carboxamide], for which the 50% inhibitory concentration (IC50) turned out to be 0.0097 µM.
Turning to `CCN(CC)C(=O)c1ccc(Nc2nc3ccc(N4CCN(C(=O)NCc5ccc(F)cc5)CC4)cn3n2)c(OCC(C)C)c1` [Example 01.06, 4-(2-{[4-(diethylcarbamoyl)-2-(2-methylpropoxy)phenyl]amino}[1,2,4]-triazolo[1,5-a]pyridin-6-yl)-N-(4-fluorobenzyl)piperazine-1-carboxamide trifluoroacetate], the IC50 is 0.0285 µM.
Take `CCN(CC)C(=O)c1ccc(Nc2nc3ccc(N4CCN(C(=O)NCc5ccc(F)cc5)CC4)cn3n2)c(OCC2CC2)c1` [Example 01.07, 4-(2-{[2-(cyclopropylmethoxy)-4-(diethylcarbamoyl)phenyl]amino}[1,2,4]-triazolo[1,5-a]pyridin-6-yl)-N-(4-fluorobenzyl)piperazine-1-carboxamide]: the IC50 came out at 0.0206 µM.
In the case of `CCN(CC)C(=O)c1ccc(Nc2nc3ccc(N4CCN(C(=O)NCc5ccc(F)cc5)CC4)cn3n2)c(OCCOC)c1` [Example 01.08, 4-(2-{[4-(diethylcarbamoyl)-2-(2-methoxyethoxy)phenyl]amino}[1,2,4]-triazolo[1,5-a]pyridin-6-yl)-N-(4-fluorobenzyl)piperazine-1-carboxamide], the IC50 worked out at 0.057 µM.
Turning to `CCN(CC)C(=O)c1ccc(Nc2nc3ccc(N4CCN(C(=O)NCc5ccc(F)cc5)CC4)cn3n2)c(OCC(F)(F)F)c1` [Example 01.09, 4-(2-{[4-(diethylcarbamoyl)-2-(2,2,2-trifluoroethoxy)phenyl]amino}[1,2,4]-triazolo[1,5-a]pyridin-6-yl)-N-(4-fluorobenzyl)piperazine-1-carboxamide trifluoroacetate], the IC50 was 0.0017 µM.
As to `COc1cc(N2CCN(C)CC2)ccc1Nc1nc2ccc(N3CCN(C(=O)NCc4ccc(F)cc4)CC3)cn2n1` [Example 01.10, N-(4-fluorobenzyl)-4-(2-{[2-methoxy-4-(4-methylpiperazin-1-yl)phenyl]-amino}[1,2,4]triazolo[1,5-a]pyridin-6-yl)piperazine-1-carboxamide], the IC50 was determined as 0.0092 µM.
For the compound `COc1cc(Nc2nc3ccc(N4CCN(C(=O)NCc5ccc(F)cc5)CC4)cn3n2)ccc1C(=O)N1CCOCC1` [Example 01.11, N-(4-fluorobenzyl)-4-(2-{[3-methoxy-4-(morpholin-4-ylcarbonyl)phenyl]-amino}[1,2,4]triazolo[1,5-a]pyridin-6-yl)piperazine-1-carboxamide], the IC50 is 0.0456 µM.
To `COc1ncccc1Nc1nc2ccc(N3CCN(C(=O)NCc4ccc(F)cc4)CC3)cn2n1` [Example 01.12, N-(4-fluorobenzyl)-4-{2-[(2-methoxypyridin-3-yl)amino][1,2,4]triazolo[1,5-a]pyridin-6-yl}piperazine-1-carboxamide] belongs 0.0186 µM.
As to `CCOc1ncccc1Nc1nc2ccc(N3CCN(C(=O)NCc4ccc(F)cc4)CC3)cn2n1` [Example 01.13, 4-{2-[(2-ethoxypyridin-3-yl)amino][1,2,4]triazolo[1,5-a]pyridin-6-yl}-N-(4-fluorobenzyl)piperazine-1-carboxamide], the 50% inhibitory concentration (IC50) was 0.0089 µM.
On to `N#Cc1ccccc1Nc1nc2ccc(N3CCN(C(=O)NCc4ccc(F)cc4)CC3)cn2n1` [Example 01.14, 4-{2-[(2-cyanophenyl)amino][1,2,4]triazolo[1,5-a]pyridin-6-yl}-N-(4-fluoro-benzyl)piperazine-1-carboxamide], for which the IC50 worked out at 0.008 µM.
To `CCOc1cc(C(=O)N2CCOCC2)ccc1Nc1nc2ccc(N3CCC(C(=O)NCc4ccc(F)cc4)CC3)cn2n1` [Example 02.01, 1-(2-{[2-ethoxy-4-(morpholin-4-ylcarbonyl)phenyl]amino}[1,2,4]triazolo-[1,5-a]pyridin-6-yl)-N-(4-fluorobenzyl)piperidine-4-carboxamide] belongs 0.0322 µM; to `CCNC(=O)c1ccc(Nc2nc3ccc(N4CCC(C(=O)NCC5CC5)CC4)cn3n2)c(OCC)c1` [Example 03.01, N-(cyclopropylmethyl)-1-(2-{[2-ethoxy-4-(ethylcarbamoyl)phenyl]amino}-[1,2,4]triazolo[1,5-a]pyridin-6-yl)piperidine-4-carboxamide], 0.0688 µM; to `CCOc1cc(C(=O)N2CCOCC2)ccc1Nc1nc2ccc(N3CCC(C(=O)NCC4CC4)CC3)cn2n1` [Example 03.02, N-(cyclopropylmethyl)-1-(2-{[2-ethoxy-4-(morpholin-4-ylcarbonyl)phenyl]-amino}[1,2,4]triazolo[1,5-a]pyridin-6-yl)piperidine-4-carboxamide], 0.0678 µM.
Regarding `CCNC(=O)c1ccc(Nc2nc3ccc(N4CCC(NC(=O)Cc5ccc(F)cc5)CC4)cn3n2)c(OCC)c1` [Example 04.01, 3-ethoxy-N-ethyl-4-{[6-(4-{[(4-fluorophenyl)acetyl]amino}piperidin-1-yl)-[1,2,4]triazolo[1,5-a]pyridin-2-yl]amino}benzamide], the IC50 came out at 0.0071 µM.
With `CCOc1cc(C(=O)N2CCOCC2)ccc1Nc1nc2ccc(N3CCC(NC(=O)Cc4ccc(F)cc4)CC3)cn2n1` [Example 04.02, N-[1-(2-{[2-ethoxy-4-(morpholin-4-ylcarbonyl)phenyl]amino}[1,2,4]-triazolo[1,5-a]pyridin-6-yl)piperidin-4-yl]-2-(4-fluorophenyl)acetamide], the IC50 worked out at 0.0128 µM.
Take `CCOc1ncccc1Nc1nc2ccc(N3CCC(NC(=O)Cc4ccc(F)cc4)CC3)cn2n1` [Example 04.03, N-(1-{2-[(2-ethoxypyridin-3-yl)amino][1,2,4]triazolo[1,5-a]pyridin-6-yl}-piperidin-4-yl)-2-(4-fluorophenyl)acetamide]: the IC50 is 0.0328 µM.
To `O=C(NCc1ccc(F)cc1)NC1CCN(c2ccc3nc(Nc4ccc(C(=O)N5CCOCC5)cc4OCC(F)(F)F)nn3c2)C1` (stereo not drawn) [Example 05.01, 1-(4-fluorobenzyl)-3-[1-(2-{[4-(morpholin-4-ylcarbonyl)-2-(2,2,2-trifluoroethoxy)phenyl]amino}[1,2,4]triazolo[1,5-a]pyridin-6-yl)pyrrolidin-3-yl]urea] belongs 0.0469 µM.
